# Source: patent US20250154129A1, “CRYSTALLINE PHARMACEUTICALLY ACCEPTABLE SALT AND POLYMORPHIC FORM OF THE […] CYCLASE INHIBITOR VAROGLUTAMSTAT” (VIVORYON THERAPEUTICS N.V., priority 2023, published 2025)
# Legend:
# [1] = Solubility in water of salt forms from 1 g scale salt screening in isopropanol; assay type: physicochemical; conditions: 20° C.
# Excerpt: (§1) For such salts with a clear stoichiometry, their preparation was then repeated on 1 g scale (free base) in isopropanol with the acid slowly being added followed by seeding (seeds as obtained from the screening experiment). The solids were then further characterized with regard to: • Handling of crystals, • Crystal habit (microscopy, macroscopic): presence and shape of crystals, • Crystallinity (quality of crystals, XRPD), • Thermal analysis (DSC and TGA), • Hygroscopicity (DVS), and • Solubility in water.
# [2] = Solubility screen of the hydrochloride salt in single solvents (HPLC of mother liquor); assay type: physicochemical; conditions: 20° C.
# Procedure: As a first step, a solubility screen of the hydrochloride salt (obtained from the 1 g scale experiments in Example 3.2) was performed in single solvents as listed in Table 5. This was done in order to identify the most suitable solvents for the process development.
# The resulting suspensions were equilibrated for at least 4 hours and the mother liquors sampled for solubility determination by HPLC (see “Description of analytical procedures used in the Examples of the invention” for method details).
# • Column: ZORBAX BONUS RP 150 mm×4.6 mm; 3.5 um • Eluent A: 0.05% HCOOH in H2O • Eluent B: 0.05% HCOOH in ACN • Flow 1.00 ml/min • Gradient: 2 min 100% Eluent A, linear increase of Eluent B from 2 to 20 min from 0 to 100% • Detection: UV at 225 nm
# CCL2/CCR2 axis = conditions: three-week repeated administration, 30 and 100 mg/kg, twice daily; dose-dependent; cited from earlier work
# [3] = Crystallinity by XRPD of salt forms from Example 3.2; assay type: physicochemical; conditions: 1 g scale, isopropanol
# Excerpt: as §1
# • Angle: 2θ=2° to 2θ=40° • Sampling width 0.02 • Measurement time: 75 minutes.
# Solid was positioned on sample holder, prepared with grease and flattened with a disc of glass.
# [4] = Hygroscopicity (DVS) of salt forms from Example 3.2; assay type: physicochemical; conditions: 1 g scale, isopropanol
# Excerpt: as §1
# VTI-SA by TA Instruments with Isotherm Software for data acquisition and handling, glass sample holder and de-ionised water for vapour production.
# [5] = Solubility screening of the Varoglutamstat free base (HPLC of mother liquor); assay type: physicochemical
# Procedure: 75 mg of solid were transferred into a glass vial, a magnetic stir bar and 1.5 ml of solvent were added. […] The vials were then cooled to 20° C. and stirred for another 30 min. When completely dissolved, additional solid material was added, and the vial equilibrated for at least 3 hours at 20° C.
# The mother liquor was sampled and analyzed for content via HPLC versus an external standard solution (1-point calibration).
# • Column: PHENOMENEX LUNA C18, 50×4.6 mm, 3 μm, • Mobile phase A: 0.05% TFA in water, • Mobile phase B: 0.05% TFA in acetonitrile. • Gradient: 10% to 90% B in 10 min, 2 min hold, re-equilibrate to initial gradient composition. • Flow: 1.0 mL/min. • Detection: UV at 225 nm.
# [6] = test system: mice doubly transgenic for human APP and human glutaminyl cyclase; conditions: chronic oral dosing; cited from earlier work
# [7] = pKa of Varoglutamstat (weak base); assay type: physicochemical
# Aβ soluble protofibrils = conditions: adult patients with early Alzheimer disease; cited from earlier work
# [8] = DMSO, solution obtained: solubility identical or higher than 50 mg/mL
# [9] = MeOH, solution obtained: solubility identical or higher than 50 mg/mL
# [10] = Water, solution obtained: solubility identical or higher than 50 mg/mL
molecule,measurement,setting,value
CCCOc1ccc([C@H]2CNC(=O)N2c2ccc3[nH]cnc3c2)cc1 [TosOH],Solubility in water,[1]; procedure of Example 4.1,3600 µM
"CCCOc1ccc([C@H]2CNC(=O)N2c2ccc3[nH]cnc3c2)cc1.Cl [Varoglutamstat Hydrochloride, (S)-1-(1H-benzo[d]imidazol-5-yl)-5-(4-propoxyphenyl) imidazolidin-2-one hydrochloride]",ML free base,[2]; ACN,0.1 mg/mL
same,calculated HCl,[2]; ACN,0.1 mg/mL
same,ML free base,[2]; Acetone,0.1 mg/mL
same,calculated HCl,[2]; Acetone,0.1 mg/mL
same,ML free base,[2]; [8],51.7 mg/mL
same,calculated HCl,[2]; [8],57.3 mg/mL
same,ML free base,[2]; EtOAc,0.0 mg/mL
same,calculated HCl,[2]; EtOAc,0.0 mg/mL
same,ML free base,[2]; EtOH,41.3 mg/mL
same,calculated HCl,[2]; EtOH,45.8 mg/mL
same,ML free base,[2]; Heptane,0.0 mg/mL
same,calculated HCl,[2]; Heptane,0.0 mg/mL
same,ML free base,[2]; IPA,3.6 mg/mL
same,calculated HCl,[2]; IPA,4.0 mg/mL
same,ML free base,[2]; IPrOAc,0.0 mg/mL
same,calculated HCl,[2]; IPrOAc,0.0 mg/mL
same,ML free base,[2]; MEK,0.0 mg/mL
same,calculated HCl,[2]; MEK,0.0 mg/mL
same,ML free base,[2]; MIBK,0.1 mg/mL
same,calculated HCl,[2]; MIBK,0.1 mg/mL
same,ML free base,[2]; Me-THF,0.0 mg/mL
same,calculated HCl,[2]; Me-THF,0.0 mg/mL
same,ML free base,[2]; [9],47.5 mg/mL
same,calculated HCl,[2]; [9],52.6 mg/mL
same,ML free base,[2]; TBME,0.0 mg/mL
same,calculated HCl,[2]; TBME,0.0 mg/mL
same,ML free base,[2]; THF,0.0 mg/mL
same,calculated HCl,[2]; THF,0.0 mg/mL
same,ML free base,[2]; Toluene,0.1 mg/mL
same,calculated HCl,[2]; Toluene,0.1 mg/mL
same,ML free base,[2]; [10],52.0 mg/mL
same,calculated HCl,[2]; [10],57.6 mg/mL
same,ML free base,[2]; nBuOH,3.9 mg/mL
same,calculated HCl,[2]; nBuOH,4.4 mg/mL
same,ML free base,[2]; nPrOH,10.4 mg/mL
same,calculated HCl,[2]; nPrOH,11.5 mg/mL
CCCOc1ccc(C2C(=O)NC(=O)N2c2ccc3[nH]cnc3c2)cc1 (stereo not drawn) [PQ529],serum and urine CCL2,CCL2/CCR2 axis,significantly reduced
same,urinary protein excretion,CCL2/CCR2 axis,significantly reduced
Fumarate,crystallinity (by XRPD),[3],mediocre
same,hygroscopicity,[4],high
"CCCOc1ccc([C@H]2CNC(=O)N2c2ccc3[nH]cnc3c2)cc1 [Varoglutamstat free base, (S)-1-(1H-benzo[d]imidazol-5-yl)-5-(4-propoxyphenyl)imidazolidin-2-one]",solubility in organic solvents,"[5]; methyl-isobutyl-ketone, dichloro-methane, 20° C.",good
same,solubility,"[5]; organic solvent or mixture, thermodynamic from solid, acetone, tetrahydrofuran, methyl-tetrahydrofuran, methyl-ethylketone, 2-pentanone, acetonitrile, dimethylsulfoxide, methanol, ethanol, isopropanol, n-propanol, n-butanol, 20° C., read-out: excellent solubility in organic solvents",≥ 30 mg/mL
same,solubility in organic solvents,"[5]; tert-butyl-methyl-ketone, ethyl-acetate, isopropyl-acetate, heptane, toluene, 20° C.",poorly soluble or insoluble
same,solubility at 30 min,"[5]; thermodynamic from solid, water, equilibrated at 20° C.",< 1 mg/mL
same,Solubility in water,"[5]; water, forms a sticky/oily suspension",almost insoluble
same,Solubility in water,"[1]; procedure of Example 4.1, listed as free base",890 µM
same,brain pyroglutamate Aβ,[6],reduce
same,recall in the Morris water maze test of spatial memory,[6],improve
same,pKa,[7],4.55
Oxalate,crystallinity (by XRPD),[3],low
same,hygroscopicity,[4],high
"Leqembi: humanized IgG1 monoclonal antibody which binds to Aβ soluble protofibrils with high affinity (antibody, chains of the INN, looked up, V domains shown) VH: EVQLVESGGGLVQPGGSLRLSCSASGFTFSSFGMHWVRQAPGKGLEWVAYISSGSSTIYYGDTVKGRFTISRDNAKNSLFLQMSSLRAEDTAVYYCAREGGYYYGRSYYTMDYWGQGTTVTVSS VL: DVVMTQSPLSLPVTPGAPASISCRSSQSIVHSNGNTYLEWYLQKPGQSPKLLIYKVSNRFSGVPDRFSGSGSGTDFTLRISRVEAEDVGIYYCFQGSHVPPTFGPGTKLEIK",brain amyloid,Aβ soluble protofibrils,reduce
same,cognitive decline,Aβ soluble protofibrils,modestly slow
